Measurements as given in patent publication US20090318430A1, “MEDICAL USE OF CYCLIN DEPENDENT KINASES INHIBITORS” (ASTEX THERAPEUTICS LIMITED, priority 2006, published 2009).
Where a name gives a salt, the structure may show the parent alone. One block for each molecule: values may come before it.

Experiments:
[1] = Solubility of the acid addition salt; format: physicochemical
[2] = test system: polycystic cpk mice; details: cited from earlier work
[3] = test system: rat model of focal cerebral ischemia; details: cited from earlier work
[4] = molecular target: T1, Cdk5/p35 enzyme (Upstate) (Homo sapiens, UniProt Q00535); assay: Alternative CDK5 assay (DELFIA, biotinylated histone H1 peptide); format: biochemical; details: Cdk5/p35, ATP, 30 minutes at room temperature, TRF read-out
T1 construct: purchased Upstate
Experimental: In a 96-well polypropylene plate add 5 μl of 5× test compound (in 12.5% DMSO) per well. Prepare an assay mix of 2.5 μM biotinylated histone H1 peptide (Bachem), 2.5 mM DTT in 1× assay buffer (10× assay buffer contains 250 mM Tris-HCl pH7.5, 2.5 mM MgCl2, 0.025 Brij-35, 0.1 mg/ml BSA. Add 10 μl of assay mix per well. Prepare the Cdk5/p35 enzyme (Upstate) at 0.625 nM in 1× assay buffer with 37.5 μM ATP on ice. Add 10 μl per well to start the reaction, seal with sealing film and incubate for 30 minutes at room temperature on a plate shaker. Stop the reaction by the addition of 100 μl stop buffer (1× Blocker BSA-Pierce, 0.05% surfact-AMPS-20, 100 mM EDTA). Shake plate for 1 minute. Transfer 100 μl of the stopped reaction to a black Neutravidin coated plate. Shake at room temperature for 30 minutes. Wash plate 5× with 200 μl TBS-Tween. Add 100 μl of anti-phospho cdk1-substrate antibody (Calbiochem) at 1:1500 in 1×DELFIA assay buffer (Perkin Elmer) to each well. Shake for 1 hour at room temperature. Wash plate 5× with 200 μl TBS-Tween. Add 100 μl of Eu-labelled anti-rabbit IgG at 1:300 in 1×DELFIA assay buffer per well. Shake for 1 hour at room temperature. Wash plate 5× with 200 μl TBS-Tween. Add 100 μl DELFIA enhancement solution (Perkin Elmer) per well and incubate 5 minutes on a plate shaker at <900 rpm. Read using TRF enabled fluorimeter at 335ex/620em.

[5] = Vapour sorption/desorption analysis; format: physicochemical
Experimental: Crystals of 4-(2,6-dichlorobenzoylamino)-1H-pyrazole-3-carboxylic acid (1-methanesulphonyl-piperidin-4-yl)-amide prepared by the recrystallisation method of Example 11 Step 8 were subjected to vapour sorption/desorption analysis in order to test for the propensity of this sample to form a hydrated state.
Approximately 20 mg of sample was placed into a wire-mesh vapour sorption balance pan and loaded into an ‘IgaSorp’ vapour sorption balance (Hiden Analytical Instruments) held at 25+/−0.1° C. The sample was then dried by maintaining a 0% humidity environment (using mass flow control apparatus) until no further weight change was recorded. Subsequently, the sample was then subjected to a ramping profile from 0-90% relative humidity (% RH) at 10% RH increments, maintaining the sample at each step until equilibration had been attained (99.5% step completion).
Upon reaching equilibration, the % RH within the apparatus was ramped to the next step and the equilibration procedure repeated. After completion of the sorption cycle, the sample was then dried using the same procedure. The weight change during the sorption/desorption cycles was then monitored, allowing for the hygroscopic nature of the sample to be determined.

[6] = test system: formalin-induced nociceptive responses in rats; details: cited from earlier work
[7] = test system: jck and cpk mouse models of PKD; details: cited from earlier work

T1 sequence (Q00535 whole entry): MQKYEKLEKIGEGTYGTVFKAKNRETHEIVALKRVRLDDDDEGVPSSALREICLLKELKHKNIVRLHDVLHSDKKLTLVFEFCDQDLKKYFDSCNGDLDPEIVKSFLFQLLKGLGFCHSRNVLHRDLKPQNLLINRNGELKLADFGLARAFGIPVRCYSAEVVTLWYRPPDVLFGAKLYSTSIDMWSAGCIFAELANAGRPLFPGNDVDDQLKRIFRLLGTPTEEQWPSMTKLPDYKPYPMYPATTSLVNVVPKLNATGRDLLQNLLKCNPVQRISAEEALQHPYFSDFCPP
T1 sequence (Q15078 whole entry partner): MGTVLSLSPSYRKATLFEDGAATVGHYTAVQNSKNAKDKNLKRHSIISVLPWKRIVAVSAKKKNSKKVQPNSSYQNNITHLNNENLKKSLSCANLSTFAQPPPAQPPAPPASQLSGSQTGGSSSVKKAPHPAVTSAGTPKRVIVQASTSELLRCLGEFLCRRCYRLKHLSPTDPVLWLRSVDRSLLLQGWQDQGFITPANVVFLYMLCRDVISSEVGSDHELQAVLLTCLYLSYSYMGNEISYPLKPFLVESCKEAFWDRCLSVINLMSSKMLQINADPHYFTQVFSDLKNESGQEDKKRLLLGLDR

SMILES: O=C(NC1CCNCC1)c1n[nH]cc1NC(=O)c1c(Cl)cccc1Cl [methanesulphonic acid salt, 4-(2,6-dichlorobenzoylamino)-1H-pyrazole-3-carboxylic acid piperidin-4-ylamide methanesulphonate]
solubility ([1]; pH 4.6, aqueous buffer, buffer formed from acetic acid and sodium acetate, solution pH approximately 4.6): ~35 mg/mL
water solubility ([1]; water, qualitative statement): excellent water solubility

SMILES: CC(=O)O[C@H]1C(=O)[C@@]2(C)[C@H]([C@H](OC(=O)c3ccccc3)[C@]3(O)C[C@H](OC(=O)[C@H](O)[C@@H](NC(=O)c4ccccc4)c4ccccc4)C(C)=C1C3(C)C)[C@]1(OC(C)=O)CO[C@@H]1C[C@@H]2O [taxol]
progression of PKD and survival [2]: inhibit the progression of PKD and prolongs the survival

SMILES: CN1CC[C@H](c2c(O)cc(O)c3c(=O)cc(-c4ccccc4Cl)oc23)[C@H](O)C1 [flavopiridol]
neuronal death [3]: significantly reduce neuronal death

IC50 [4]: < 100 nM
weight increase upon equilibration at 90% RH ([5]; crystals, 25 °C, stepwise 0-90% relative humidity): 0.24%
SMILES: CS(=O)(=O)N1CCC(NC(=O)c2n[nH]cc2NC(=O)c2c(Cl)cccc2Cl)CC1 [Example 12, 4-(2,6-dichloro-benzoylamino)-1H-pyrazole-3-carboxylic acid (1-methanesulphonyl-piperidin-4-yl)-amide]
hygroscopicity / hydrate formation ([5]; storage in elevated humidity conditions): physically stable with regard to hygroscopicity

SMILES: CC[C@H](CO)Nc1nc(NCc2ccccc2)c2ncn(C(C)C)c2n1 [roscovitine]
formalin-induced nociceptive responses [6]: attenuate the formalin-induced nociceptive responses
cystic disease [7]: effective arrest of cystic disease
